The target in assay [1] is Mitogen-activated protein kinase kinase kinase 4 (Homo sapiens, UniProt Q9Y6R4).
The target in assay [2] is Ribosomal protein S6 kinase alpha-4 (Homo sapiens, UniProt O75676).
Assay [3] has as its target T1, Serine/threonine-protein kinase ULK1 (Homo sapiens, UniProt O75385).
T1 sequence (O75385 whole entry): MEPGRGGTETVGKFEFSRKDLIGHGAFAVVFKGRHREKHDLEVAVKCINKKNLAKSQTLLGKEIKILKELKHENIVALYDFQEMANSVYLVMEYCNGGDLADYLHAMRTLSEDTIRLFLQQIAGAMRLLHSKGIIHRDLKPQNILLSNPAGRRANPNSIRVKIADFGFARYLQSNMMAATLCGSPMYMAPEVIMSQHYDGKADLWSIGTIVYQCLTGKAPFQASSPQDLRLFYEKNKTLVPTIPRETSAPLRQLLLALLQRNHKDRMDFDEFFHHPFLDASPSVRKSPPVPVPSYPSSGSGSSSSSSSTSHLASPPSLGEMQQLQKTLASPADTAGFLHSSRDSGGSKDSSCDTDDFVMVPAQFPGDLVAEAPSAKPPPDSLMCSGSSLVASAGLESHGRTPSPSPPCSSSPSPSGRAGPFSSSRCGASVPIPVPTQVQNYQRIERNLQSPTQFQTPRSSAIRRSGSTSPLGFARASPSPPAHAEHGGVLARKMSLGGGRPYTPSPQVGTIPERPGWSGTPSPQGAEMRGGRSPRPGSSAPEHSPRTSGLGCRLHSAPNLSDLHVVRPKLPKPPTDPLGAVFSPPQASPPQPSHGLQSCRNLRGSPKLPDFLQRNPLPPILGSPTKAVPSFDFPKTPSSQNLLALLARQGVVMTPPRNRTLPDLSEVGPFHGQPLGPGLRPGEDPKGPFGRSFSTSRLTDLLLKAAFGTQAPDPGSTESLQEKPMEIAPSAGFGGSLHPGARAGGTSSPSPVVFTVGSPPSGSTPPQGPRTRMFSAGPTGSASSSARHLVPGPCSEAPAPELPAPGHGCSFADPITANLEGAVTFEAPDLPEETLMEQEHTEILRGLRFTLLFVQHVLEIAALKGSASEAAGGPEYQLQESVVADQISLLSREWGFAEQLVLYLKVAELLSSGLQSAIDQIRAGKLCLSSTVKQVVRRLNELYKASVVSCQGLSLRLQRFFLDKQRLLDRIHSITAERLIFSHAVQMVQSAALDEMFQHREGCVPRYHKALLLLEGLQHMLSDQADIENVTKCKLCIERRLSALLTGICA

The target in assay [4] is T2, Mitogen-activated protein kinase kinase kinase 3 (Homo sapiens, UniProt Q99759).
T2 sequence (Q99759 whole entry): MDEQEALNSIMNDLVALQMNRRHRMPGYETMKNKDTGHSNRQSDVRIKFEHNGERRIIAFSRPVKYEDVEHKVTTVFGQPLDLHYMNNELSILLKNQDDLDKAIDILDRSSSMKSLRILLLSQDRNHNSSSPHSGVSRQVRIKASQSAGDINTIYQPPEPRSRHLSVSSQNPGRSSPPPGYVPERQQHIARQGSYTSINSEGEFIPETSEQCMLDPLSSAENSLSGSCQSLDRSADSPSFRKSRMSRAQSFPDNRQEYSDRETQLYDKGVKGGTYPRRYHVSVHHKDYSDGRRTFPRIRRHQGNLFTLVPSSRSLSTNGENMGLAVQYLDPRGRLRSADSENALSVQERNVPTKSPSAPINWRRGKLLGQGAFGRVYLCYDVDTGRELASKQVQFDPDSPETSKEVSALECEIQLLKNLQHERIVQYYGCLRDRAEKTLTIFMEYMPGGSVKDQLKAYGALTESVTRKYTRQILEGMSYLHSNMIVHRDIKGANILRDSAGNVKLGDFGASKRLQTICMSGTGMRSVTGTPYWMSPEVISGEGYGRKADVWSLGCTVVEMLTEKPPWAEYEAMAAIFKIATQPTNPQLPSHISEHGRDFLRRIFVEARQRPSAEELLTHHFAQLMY

The target of assay [5] is T3, Phenylalanine--tRNA ligase beta subunit (Homo sapiens, UniProt Q9NSD9).
T3 sequence (Q9NSD9 whole entry): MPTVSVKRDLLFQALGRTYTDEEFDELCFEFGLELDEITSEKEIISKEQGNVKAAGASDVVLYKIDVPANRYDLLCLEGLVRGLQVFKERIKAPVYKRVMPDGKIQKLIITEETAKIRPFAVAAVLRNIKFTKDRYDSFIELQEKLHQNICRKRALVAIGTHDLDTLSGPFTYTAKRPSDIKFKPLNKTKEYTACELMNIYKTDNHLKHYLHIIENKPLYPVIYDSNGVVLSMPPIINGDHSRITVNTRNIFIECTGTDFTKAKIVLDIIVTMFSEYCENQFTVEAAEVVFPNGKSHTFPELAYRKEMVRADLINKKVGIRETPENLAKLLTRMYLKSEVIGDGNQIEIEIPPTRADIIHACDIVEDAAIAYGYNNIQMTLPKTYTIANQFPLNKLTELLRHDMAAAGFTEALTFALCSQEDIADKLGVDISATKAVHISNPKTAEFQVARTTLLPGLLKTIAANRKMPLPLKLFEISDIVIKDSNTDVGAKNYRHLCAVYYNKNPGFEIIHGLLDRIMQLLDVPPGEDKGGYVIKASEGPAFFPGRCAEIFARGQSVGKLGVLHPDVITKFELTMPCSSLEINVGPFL

The target of assay [6] is cAMP-dependent protein kinase catalytic subunit alpha (Homo sapiens, UniProt P17612).
For assay [7], the target named is 5'-AMP-activated protein kinase catalytic subunit alpha-1 (Homo sapiens, UniProt Q13131).
In the next assay the target is T4, TGF-beta receptor type-1 (Homo sapiens, UniProt P36897).
T4 sequence (P36897 whole entry): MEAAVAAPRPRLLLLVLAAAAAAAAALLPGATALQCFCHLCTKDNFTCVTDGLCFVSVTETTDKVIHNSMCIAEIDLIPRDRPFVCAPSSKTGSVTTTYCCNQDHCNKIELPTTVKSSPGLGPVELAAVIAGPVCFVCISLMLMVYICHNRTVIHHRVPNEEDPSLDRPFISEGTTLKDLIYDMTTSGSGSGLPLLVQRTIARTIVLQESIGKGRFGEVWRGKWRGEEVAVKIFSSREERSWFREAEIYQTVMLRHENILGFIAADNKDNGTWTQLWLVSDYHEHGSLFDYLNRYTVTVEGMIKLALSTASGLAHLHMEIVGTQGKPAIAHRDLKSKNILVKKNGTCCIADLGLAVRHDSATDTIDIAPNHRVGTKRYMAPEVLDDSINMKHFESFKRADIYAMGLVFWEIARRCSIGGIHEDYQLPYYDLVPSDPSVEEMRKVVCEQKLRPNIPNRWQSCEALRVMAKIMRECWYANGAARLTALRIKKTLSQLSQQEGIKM

Activity calls are given as the source filed them. For most assays here, no stated cut-off is given here; in the data, actives have a measured Kd and inactives only a lower limit.

Kd data for eleven compounds are collected here from ChEMBL document CHEMBL3991601, “The target landscape of clinical kinase drugs” (Science, 2017).

Chain of Mitogen-activated protein kinase kinase kinase 4 (Q9Y6R4 whole entry): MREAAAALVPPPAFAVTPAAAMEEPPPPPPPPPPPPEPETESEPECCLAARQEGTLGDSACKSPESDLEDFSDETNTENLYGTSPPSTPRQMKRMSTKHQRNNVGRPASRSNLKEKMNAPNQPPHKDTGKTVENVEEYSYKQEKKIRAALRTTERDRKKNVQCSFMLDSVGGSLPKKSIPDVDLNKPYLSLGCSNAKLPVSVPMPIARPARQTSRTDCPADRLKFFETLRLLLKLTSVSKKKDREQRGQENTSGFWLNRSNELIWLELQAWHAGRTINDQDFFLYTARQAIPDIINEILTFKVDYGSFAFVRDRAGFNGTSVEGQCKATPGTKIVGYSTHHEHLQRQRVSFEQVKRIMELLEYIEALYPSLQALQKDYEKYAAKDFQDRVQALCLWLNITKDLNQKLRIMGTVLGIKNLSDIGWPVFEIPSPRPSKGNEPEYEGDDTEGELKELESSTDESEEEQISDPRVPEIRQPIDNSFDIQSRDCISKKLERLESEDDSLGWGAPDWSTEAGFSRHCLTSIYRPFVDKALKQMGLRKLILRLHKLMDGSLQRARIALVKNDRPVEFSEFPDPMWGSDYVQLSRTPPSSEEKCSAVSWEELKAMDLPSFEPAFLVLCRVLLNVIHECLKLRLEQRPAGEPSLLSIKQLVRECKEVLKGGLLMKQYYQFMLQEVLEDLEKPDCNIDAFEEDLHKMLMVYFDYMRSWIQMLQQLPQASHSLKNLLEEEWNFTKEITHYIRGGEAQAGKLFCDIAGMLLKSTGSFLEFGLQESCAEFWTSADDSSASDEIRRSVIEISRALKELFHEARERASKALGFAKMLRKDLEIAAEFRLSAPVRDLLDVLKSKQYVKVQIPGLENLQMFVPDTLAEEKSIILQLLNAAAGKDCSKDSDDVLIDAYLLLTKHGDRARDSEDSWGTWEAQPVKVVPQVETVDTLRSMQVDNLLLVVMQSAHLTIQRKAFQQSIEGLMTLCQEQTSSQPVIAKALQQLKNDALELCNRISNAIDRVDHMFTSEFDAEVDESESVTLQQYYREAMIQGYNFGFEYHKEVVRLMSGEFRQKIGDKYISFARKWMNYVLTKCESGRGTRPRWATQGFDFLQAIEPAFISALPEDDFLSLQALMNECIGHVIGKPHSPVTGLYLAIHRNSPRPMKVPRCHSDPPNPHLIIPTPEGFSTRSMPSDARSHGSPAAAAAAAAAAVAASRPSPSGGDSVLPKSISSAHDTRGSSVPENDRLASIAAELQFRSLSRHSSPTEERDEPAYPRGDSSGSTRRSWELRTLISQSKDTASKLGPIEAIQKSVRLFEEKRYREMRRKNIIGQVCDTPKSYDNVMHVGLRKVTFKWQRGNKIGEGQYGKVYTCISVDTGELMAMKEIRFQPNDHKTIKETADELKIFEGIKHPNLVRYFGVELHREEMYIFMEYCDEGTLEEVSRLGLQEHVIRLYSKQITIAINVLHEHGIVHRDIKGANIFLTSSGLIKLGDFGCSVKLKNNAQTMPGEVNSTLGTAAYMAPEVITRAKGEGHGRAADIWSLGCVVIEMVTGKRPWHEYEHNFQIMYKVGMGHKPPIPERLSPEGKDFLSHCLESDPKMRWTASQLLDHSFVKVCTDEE
Chain of Ribosomal protein S6 kinase alpha-4 (O75676 whole entry): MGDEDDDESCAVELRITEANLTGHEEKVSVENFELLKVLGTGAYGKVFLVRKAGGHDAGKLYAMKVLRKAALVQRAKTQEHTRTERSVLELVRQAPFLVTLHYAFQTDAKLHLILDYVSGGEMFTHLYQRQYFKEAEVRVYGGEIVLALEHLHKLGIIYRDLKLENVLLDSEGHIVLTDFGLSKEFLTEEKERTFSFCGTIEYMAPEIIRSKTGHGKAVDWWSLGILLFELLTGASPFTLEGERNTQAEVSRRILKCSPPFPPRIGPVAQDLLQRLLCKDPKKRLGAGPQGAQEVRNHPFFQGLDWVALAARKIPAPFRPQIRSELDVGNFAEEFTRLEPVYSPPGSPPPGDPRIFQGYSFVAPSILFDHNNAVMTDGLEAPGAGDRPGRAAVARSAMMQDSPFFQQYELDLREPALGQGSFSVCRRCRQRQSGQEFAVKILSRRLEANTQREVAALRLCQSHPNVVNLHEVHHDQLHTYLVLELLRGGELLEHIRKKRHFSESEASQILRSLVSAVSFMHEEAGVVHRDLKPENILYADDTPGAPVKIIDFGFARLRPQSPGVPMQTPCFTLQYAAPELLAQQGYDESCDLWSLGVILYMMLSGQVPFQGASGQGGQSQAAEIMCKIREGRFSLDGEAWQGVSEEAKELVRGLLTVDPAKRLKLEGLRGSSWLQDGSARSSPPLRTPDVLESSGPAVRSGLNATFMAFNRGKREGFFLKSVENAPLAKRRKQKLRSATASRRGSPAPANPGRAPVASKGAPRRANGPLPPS
Chain of 5'-AMP-activated protein kinase catalytic subunit alpha-1 (Q13131 whole entry): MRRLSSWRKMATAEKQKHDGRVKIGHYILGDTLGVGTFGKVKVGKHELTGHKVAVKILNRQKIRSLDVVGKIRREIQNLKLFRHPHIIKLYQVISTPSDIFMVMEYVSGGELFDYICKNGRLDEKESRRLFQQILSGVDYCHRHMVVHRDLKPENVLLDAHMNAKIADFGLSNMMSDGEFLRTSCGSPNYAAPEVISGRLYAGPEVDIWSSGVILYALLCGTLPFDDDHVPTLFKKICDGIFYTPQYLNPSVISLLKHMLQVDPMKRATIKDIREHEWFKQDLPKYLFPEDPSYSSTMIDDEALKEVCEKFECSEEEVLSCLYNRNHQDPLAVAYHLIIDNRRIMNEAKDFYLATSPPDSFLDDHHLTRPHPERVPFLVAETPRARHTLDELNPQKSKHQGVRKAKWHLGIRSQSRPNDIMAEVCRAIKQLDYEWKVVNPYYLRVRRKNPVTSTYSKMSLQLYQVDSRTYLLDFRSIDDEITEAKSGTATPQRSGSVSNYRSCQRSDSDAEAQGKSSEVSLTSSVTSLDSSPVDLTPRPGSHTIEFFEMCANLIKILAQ

For the compound `Cc1cnc(NC(=O)Nc2cc(Br)c(C)cc2OC[C@@H]2CNCCO2)cn1` [RABUSERTIB], the Kd in assay [1], in assay [2], in assay [3], in assay [4], in assay [5] and in assay [6] was > 30 µM (inactive) in each case. Besides, the Kd (in assay [7]; on TGF-beta receptor type-1) was > 30 µM (inactive) each time.
Regarding `CNC(=O)c1cc(Oc2ccc(NC(=O)Nc3cc(C(C)(C)C)nn3-c3ccc4ncccc4c3)c(F)c2)ccn1` [REBASTINIB], the Kd (as a rule, the free concentration of one partner at which half of the binding sites on the other are occupied at equilibrium, for simple one-to-one binding) in assay [1] is > 30 µM (inactive); in assay [2] it was 12.8 µM; in assay [3], > 30 µM (inactive); in assay [4], > 30 µM (inactive); in assay [5] it was > 30 µM (inactive); in assay [6], > 30 µM (inactive). Besides, the Kd (in assay [7]; on TGF-beta receptor type-1) was > 30 µM (inactive) in each case.
As to `CO[C@H]1C[C@@H]2CC[C@@H](C)[C@@](O)(O2)C(=O)C(=O)N2CCCC[C@H]2C(=O)O[C@H]([C@H](C)C[C@@H]2CC[C@@H](OP(C)(C)=O)[C@H](OC)C2)CC(=O)[C@H](C)/C=C(\C)[C@@H](O)[C@@H](OC)C(=O)[C@H](C)C[C@H](C)/C=C/C=C/C=C/1C` [RIDAFOROLIMUS], the Kd in assay [1], in assay [2], in assay [3], in assay [4], in assay [5] and in assay [6] was > 30 µM (inactive) in each case. The Kd (in assay [7]; at TGF-beta receptor type-1) was > 30 µM (inactive) throughout.
For `N#CC1(c2ccc(NC(=O)c3cccnc3NCc3ccncc3)cc2)CCCC1` [RIVOCERANIB], the Kd in assay [1], in assay [2], in assay [3], in assay [4], in assay [5] and in assay [6] was > 30 µM (inactive) throughout. The Kd (in assay [7]; at TGF-beta receptor type-1) was > 30 µM (inactive) throughout.
With `O=c1[nH]ccc2cc(OC3CCNCC3)ccc12` [SAR-407899 FREE BASE], the Kd in assay [1] was > 30 µM (inactive); in assay [2], > 30 µM (inactive); in assay [3], > 30 µM (inactive); in assay [4], > 30 µM (inactive); in assay [5], > 30 µM (inactive); in assay [6] it was 0.013 µM. Also, the Kd (in assay [7]; on TGF-beta receptor type-1) was > 30 µM (inactive) in each case.
Turning to `CN1CCN(CCOc2cc(OC3CCOCC3)c3c(Nc4c(Cl)ccc5c4OCO5)ncnc3c2)CC1` [SARACATINIB], the Kd in assay [1], in assay [2], in assay [3], in assay [4], in assay [5] and in assay [6] was > 30 µM (inactive) each time. Also, the Kd is > 30 µM (inactive) in assay [7] and 0.197 µM (active) on TGF-beta receptor type-1.
Take `Cn1cc(-c2cnn3c(N)c(Br)c([C@@H]4CCCNC4)nc23)cn1` [SCH-900776]: the Kd was > 30 µM (inactive) in assay [1]; 3.41 µM in assay [2]; > 30 µM (inactive) in assay [3]; > 30 µM (inactive) in assay [4]; > 30 µM (inactive) in assay [5]; > 30 µM (inactive) in assay [6]. In addition, the Kd (in assay [7]; on TGF-beta receptor type-1) was > 30 µM (inactive) each time.
With `CO[C@H]1C[C@@H]2CC[C@@H](C)[C@@](O)(O2)C(=O)C(=O)N2CCCC[C@H]2C(=O)O[C@H]([C@H](C)C[C@@H]2CC[C@@H](O)[C@H](OC)C2)CC(=O)[C@H](C)/C=C(\C)[C@@H](O)[C@@H](OC)C(=O)[C@H](C)C[C@H](C)/C=C/C=C/C=C/1C` [SIROLIMUS], the Kd in assay [1], in assay [2], in assay [3], in assay [4], in assay [5] and in assay [6] was > 30 µM (inactive) throughout. In addition, the Kd (in assay [7]; on TGF-beta receptor type-1) was > 30 µM (inactive) each time.
On to `CO[C@H]1C[C@@H]2CC[C@@H](C)[C@@](O)(O2)C(=O)C(=O)N2CCCC[C@H]2C(=O)O[C@H]([C@H](C)C[C@@H]2CC[C@@H](OC(=O)C(C)(CO)CO)[C@H](OC)C2)CC(=O)[C@H](C)/C=C(\C)[C@@H](O)[C@@H](OC)C(=O)[C@H](C)C[C@H](C)/C=C/C=C/C=C/1C` [TEMSIROLIMUS], for which the Kd in assay [1], in assay [2], in assay [3], in assay [4], in assay [5] and in assay [6] was > 30 µM (inactive) throughout. Also, the Kd (in assay [7]; on TGF-beta receptor type-1) was > 30 µM (inactive) throughout.
Take `COc1cc2c(Nc3ccc(Cl)c(Cl)c3F)ncnc2cc1OC[C@@H]1C[C@@H]2CN(C)C[C@@H]2C1` [TESEVATINIB]: the Kd in assay [1], in assay [2], in assay [3], in assay [4], in assay [5] and in assay [6] was > 30 µM (inactive) each time. Also, the Kd in assay [7] was > 30 µM (inactive); on TGF-beta receptor type-1, 3.32 µM (active).
For `O=C(Cc1ccc(-c2ccc(OCCN3CCOCC3)cc2)cn1)NCc1ccccc1` [TIRBANIBULIN], the Kd in assay [1], in assay [2], in assay [3], in assay [4], in assay [5] and in assay [6] was > 30 µM (inactive) throughout. Besides, the Kd (in assay [7]; at TGF-beta receptor type-1) was > 30 µM (inactive) in each case.
